Laboratory results from patent US12157741B2, “Macrocyclic inhibitors of DYRK1A” (DANA-FARBER CANCER INSTITUTE, INC., priority 2018, dated 2024).
Like-named read-outs stand apart in the source and are kept apart here.

Experiments:
Type in all cases: binding
[1] = target: various enzymes (Homo sapiens, UniProt O14965); conditions: compound 1 uM
Experimental: (§1) Ambit profiling was conducted in accordance with the manufacturer's instructions.

[2] = target: various enzymes (Homo sapiens, UniProt O95835); conditions: compound 1 uM
Experimental: as §1

[3] = target: various enzymes (Homo sapiens, UniProt P00519, H396P); conditions: compound 1 uM
Experimental: as §1

[4] = target: various enzymes (Homo sapiens, UniProt P00519, T315I)
Experimental: as §1

[5] = target: various enzymes (Homo sapiens, UniProt P00533, G719C)
Experimental: as §1

[6] = target: various enzymes (Homo sapiens, UniProt P10721, A829P)
Experimental: as §1

[7] = target: various enzymes (Homo sapiens, UniProt P10721, D816H)
Experimental: as §1

[8] = target: various enzymes (Homo sapiens, UniProt P16234); conditions: compound 1 uM
Chain of various enzymes (Homo sapiens, UniProt P16234) (P16234 24-1089): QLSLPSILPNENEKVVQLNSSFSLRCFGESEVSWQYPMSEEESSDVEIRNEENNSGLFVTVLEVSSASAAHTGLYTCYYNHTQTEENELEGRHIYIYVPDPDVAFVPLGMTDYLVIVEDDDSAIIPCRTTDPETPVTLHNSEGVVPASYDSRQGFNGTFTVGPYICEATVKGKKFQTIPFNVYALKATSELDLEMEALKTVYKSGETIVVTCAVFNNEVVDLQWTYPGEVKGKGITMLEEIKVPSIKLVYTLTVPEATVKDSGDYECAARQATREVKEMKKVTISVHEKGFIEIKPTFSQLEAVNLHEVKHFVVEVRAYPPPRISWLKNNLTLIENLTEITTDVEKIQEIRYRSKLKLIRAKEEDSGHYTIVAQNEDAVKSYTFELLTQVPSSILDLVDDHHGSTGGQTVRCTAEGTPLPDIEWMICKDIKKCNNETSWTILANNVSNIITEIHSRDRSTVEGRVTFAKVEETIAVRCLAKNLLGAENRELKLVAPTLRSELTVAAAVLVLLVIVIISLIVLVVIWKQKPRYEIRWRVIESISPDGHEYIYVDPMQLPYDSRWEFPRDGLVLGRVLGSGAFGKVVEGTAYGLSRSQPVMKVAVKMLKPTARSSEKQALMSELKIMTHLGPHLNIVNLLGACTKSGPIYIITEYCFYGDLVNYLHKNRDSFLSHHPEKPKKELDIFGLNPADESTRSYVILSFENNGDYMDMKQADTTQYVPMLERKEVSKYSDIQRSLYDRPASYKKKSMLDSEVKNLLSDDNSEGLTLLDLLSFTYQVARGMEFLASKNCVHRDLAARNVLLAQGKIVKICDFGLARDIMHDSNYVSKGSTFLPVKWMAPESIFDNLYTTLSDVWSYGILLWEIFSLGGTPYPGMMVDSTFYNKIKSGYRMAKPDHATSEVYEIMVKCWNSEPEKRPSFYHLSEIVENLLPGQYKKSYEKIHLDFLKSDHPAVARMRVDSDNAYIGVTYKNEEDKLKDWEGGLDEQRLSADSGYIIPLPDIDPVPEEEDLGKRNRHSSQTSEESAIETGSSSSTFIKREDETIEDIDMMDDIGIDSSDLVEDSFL
Experimental: as §1

[9] = target: various enzymes (Homo sapiens, UniProt P17612); conditions: compound 1 uM
Experimental: as §1

[10] = target: various enzymes (Homo sapiens, UniProt P27361); conditions: compound 1 uM
Experimental: as §1

[11] = target: various enzymes (Homo sapiens, UniProt P31751); conditions: compound 1 uM
Experimental: as §1

[12] = target: various enzymes (Homo sapiens, UniProt P42684); conditions: compound 1 uM
Experimental: as §1

[13] = target: various enzymes (Homo sapiens, UniProt P48729); conditions: compound 1 uM
Chain of various enzymes (Homo sapiens, UniProt P48729) (P48729 whole entry): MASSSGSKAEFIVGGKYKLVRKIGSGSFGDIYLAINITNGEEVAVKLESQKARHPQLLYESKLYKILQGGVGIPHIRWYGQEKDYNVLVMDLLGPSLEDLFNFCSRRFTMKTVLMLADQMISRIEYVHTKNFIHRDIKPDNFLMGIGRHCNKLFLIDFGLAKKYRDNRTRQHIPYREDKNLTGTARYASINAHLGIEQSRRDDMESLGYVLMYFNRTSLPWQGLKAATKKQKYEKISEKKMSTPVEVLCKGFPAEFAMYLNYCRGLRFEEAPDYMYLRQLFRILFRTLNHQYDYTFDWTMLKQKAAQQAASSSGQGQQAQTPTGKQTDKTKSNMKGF
Experimental: as §1

[14] = target: various enzymes (Homo sapiens, UniProt P48730); conditions: compound 1 uM
Chain of various enzymes (Homo sapiens, UniProt P48730) (P48730 whole entry): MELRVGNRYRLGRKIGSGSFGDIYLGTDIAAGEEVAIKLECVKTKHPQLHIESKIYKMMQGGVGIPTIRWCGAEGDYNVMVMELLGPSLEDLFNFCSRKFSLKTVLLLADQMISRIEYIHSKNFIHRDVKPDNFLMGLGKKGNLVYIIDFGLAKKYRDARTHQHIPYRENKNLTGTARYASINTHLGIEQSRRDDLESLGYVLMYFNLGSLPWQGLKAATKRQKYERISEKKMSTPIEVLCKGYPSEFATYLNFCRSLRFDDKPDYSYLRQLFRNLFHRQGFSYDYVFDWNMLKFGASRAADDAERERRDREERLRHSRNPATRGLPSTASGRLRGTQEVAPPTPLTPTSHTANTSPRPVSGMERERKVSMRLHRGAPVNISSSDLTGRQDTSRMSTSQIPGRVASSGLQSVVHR
Experimental: as §1

[15] = target: various enzymes (Homo sapiens, UniProt P49840); conditions: compound 1 uM
Chain of various enzymes (Homo sapiens, UniProt P49840) (P49840 whole entry): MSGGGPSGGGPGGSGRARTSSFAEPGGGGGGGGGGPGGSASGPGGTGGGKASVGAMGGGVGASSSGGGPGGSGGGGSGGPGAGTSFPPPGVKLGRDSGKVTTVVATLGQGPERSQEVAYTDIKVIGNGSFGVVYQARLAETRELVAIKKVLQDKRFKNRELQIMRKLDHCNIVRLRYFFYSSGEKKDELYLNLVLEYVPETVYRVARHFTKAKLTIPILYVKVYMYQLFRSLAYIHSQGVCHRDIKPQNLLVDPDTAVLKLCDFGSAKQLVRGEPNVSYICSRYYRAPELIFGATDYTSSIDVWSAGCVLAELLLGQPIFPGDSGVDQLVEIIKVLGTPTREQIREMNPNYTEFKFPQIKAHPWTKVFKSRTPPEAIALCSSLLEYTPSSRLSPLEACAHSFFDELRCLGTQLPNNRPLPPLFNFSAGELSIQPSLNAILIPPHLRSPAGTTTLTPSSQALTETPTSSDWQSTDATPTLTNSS
Experimental: as §1

[16] = target: various enzymes (Homo sapiens, UniProt P51451); conditions: compound 1 uM
Experimental: as §1

[17] = target: various enzymes (Homo sapiens, UniProt P52333); conditions: compound 1 uM
Experimental: as §1

[18] = target: various enzymes (Homo sapiens, UniProt P53778); conditions: compound 1 uM
Experimental: as §1

[19] = target: various enzymes (Homo sapiens, UniProt P80192); conditions: compound 1 uM
Chain of various enzymes (Homo sapiens, UniProt P80192) (P80192 whole entry): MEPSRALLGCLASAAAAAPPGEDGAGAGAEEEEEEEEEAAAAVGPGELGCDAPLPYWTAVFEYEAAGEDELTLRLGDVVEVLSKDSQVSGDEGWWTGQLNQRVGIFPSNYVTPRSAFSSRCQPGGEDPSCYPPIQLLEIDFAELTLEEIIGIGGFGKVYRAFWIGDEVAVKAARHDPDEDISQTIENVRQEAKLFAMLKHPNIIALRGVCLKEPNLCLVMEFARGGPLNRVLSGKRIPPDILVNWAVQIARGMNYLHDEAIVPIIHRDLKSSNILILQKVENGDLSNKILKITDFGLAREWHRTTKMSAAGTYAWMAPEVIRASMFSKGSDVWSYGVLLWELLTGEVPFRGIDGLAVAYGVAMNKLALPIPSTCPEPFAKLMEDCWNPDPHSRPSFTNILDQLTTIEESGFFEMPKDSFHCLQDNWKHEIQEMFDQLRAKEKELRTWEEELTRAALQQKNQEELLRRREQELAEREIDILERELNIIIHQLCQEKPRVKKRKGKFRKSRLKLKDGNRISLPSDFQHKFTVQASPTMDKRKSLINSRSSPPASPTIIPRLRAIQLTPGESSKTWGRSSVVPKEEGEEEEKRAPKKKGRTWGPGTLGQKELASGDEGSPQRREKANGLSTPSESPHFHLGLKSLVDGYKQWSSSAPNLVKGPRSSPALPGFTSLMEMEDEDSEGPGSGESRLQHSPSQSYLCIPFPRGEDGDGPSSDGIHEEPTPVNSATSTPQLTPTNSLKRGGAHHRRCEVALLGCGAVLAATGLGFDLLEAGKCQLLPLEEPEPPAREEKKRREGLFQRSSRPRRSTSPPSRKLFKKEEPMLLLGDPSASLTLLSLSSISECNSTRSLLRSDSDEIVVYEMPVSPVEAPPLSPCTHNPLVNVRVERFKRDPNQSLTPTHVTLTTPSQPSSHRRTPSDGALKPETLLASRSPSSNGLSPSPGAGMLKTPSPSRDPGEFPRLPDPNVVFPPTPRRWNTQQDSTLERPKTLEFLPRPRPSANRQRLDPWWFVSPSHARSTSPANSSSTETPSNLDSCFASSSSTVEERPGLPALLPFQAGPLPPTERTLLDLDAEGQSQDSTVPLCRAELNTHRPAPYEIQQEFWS
Experimental: as §1

[20] = target: various enzymes (Homo sapiens, UniProt Q02779); conditions: compound 1 uM
Experimental: as §1

[21] = target: various enzymes (Homo sapiens, UniProt Q16539); conditions: compound 1 uM
Experimental: as §1

[22] = target: various enzymes (Homo sapiens, UniProt Q5S007, G2019S)
Experimental: as §1

[23] = target: various enzymes (Homo sapiens, UniProt Q5VT25); conditions: compound 1 uM
Experimental: as §1

[24] = target: T1, various enzymes (Homo sapiens, UniProt Q6PHR2); conditions: compound 1 uM
T1 sequence (Q6PHR2 1-472): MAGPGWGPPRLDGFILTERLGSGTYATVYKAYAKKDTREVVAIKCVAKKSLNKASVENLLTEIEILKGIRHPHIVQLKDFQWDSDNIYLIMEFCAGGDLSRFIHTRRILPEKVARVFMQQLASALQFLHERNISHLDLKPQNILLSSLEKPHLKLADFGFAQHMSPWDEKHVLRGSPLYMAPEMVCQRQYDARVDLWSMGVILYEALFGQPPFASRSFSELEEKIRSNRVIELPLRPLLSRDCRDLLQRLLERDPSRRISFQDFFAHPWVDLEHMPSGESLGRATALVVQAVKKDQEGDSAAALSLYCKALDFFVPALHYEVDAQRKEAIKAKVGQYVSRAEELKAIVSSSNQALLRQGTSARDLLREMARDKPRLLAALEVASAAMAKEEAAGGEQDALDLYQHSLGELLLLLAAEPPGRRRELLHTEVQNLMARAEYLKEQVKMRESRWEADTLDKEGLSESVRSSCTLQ
Experimental: as §1

[25] = target: various enzymes (Homo sapiens, UniProt Q6ZN16); conditions: compound 1 uM
Experimental: as §1

[26] = target: various enzymes (Homo sapiens, UniProt Q86YV6); conditions: compound 1 uM
Experimental: as §1

[27] = target: various enzymes (Homo sapiens, UniProt Q86Z02); conditions: compound 1 uM
Experimental: as §1

[28] = target: various enzymes (Homo sapiens, UniProt Q8TF76); conditions: compound 1 uM
Experimental: as §1

[29] = target: various enzymes (Homo sapiens, UniProt Q96D53); conditions: compound 1 uM
Chain of various enzymes (Homo sapiens, UniProt Q96D53) (Q96D53 whole entry): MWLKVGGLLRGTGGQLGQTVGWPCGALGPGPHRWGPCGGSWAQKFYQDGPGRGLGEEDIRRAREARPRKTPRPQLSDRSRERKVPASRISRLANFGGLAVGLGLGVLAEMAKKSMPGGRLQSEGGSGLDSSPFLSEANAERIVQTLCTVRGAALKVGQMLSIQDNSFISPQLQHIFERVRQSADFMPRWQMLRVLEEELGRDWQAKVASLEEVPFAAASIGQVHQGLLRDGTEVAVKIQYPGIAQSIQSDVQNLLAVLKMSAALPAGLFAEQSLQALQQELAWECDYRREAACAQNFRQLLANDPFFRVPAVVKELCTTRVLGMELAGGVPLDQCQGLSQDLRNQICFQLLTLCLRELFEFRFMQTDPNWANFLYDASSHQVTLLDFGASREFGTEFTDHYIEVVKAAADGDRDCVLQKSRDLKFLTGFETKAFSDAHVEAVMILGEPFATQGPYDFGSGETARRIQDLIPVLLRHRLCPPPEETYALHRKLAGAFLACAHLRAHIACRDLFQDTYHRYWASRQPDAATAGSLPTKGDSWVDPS
Experimental: as §1

[30] = target: various enzymes (Homo sapiens, UniProt Q9BWU1); conditions: compound 1 uM
Experimental: as §1

[31] = target: various enzymes (Homo sapiens, UniProt Q9HC98); conditions: compound 1 uM
Experimental: as §1

[32] = target: various enzymes (Homo sapiens, UniProt Q9HCP0); conditions: compound 1 uM
Experimental: as §1

[33] = target: various enzymes (Homo sapiens, UniProt Q9UF33); conditions: compound 1 uM
Chain of various enzymes (Homo sapiens, UniProt Q9UF33) (Q9UF33 23-1036): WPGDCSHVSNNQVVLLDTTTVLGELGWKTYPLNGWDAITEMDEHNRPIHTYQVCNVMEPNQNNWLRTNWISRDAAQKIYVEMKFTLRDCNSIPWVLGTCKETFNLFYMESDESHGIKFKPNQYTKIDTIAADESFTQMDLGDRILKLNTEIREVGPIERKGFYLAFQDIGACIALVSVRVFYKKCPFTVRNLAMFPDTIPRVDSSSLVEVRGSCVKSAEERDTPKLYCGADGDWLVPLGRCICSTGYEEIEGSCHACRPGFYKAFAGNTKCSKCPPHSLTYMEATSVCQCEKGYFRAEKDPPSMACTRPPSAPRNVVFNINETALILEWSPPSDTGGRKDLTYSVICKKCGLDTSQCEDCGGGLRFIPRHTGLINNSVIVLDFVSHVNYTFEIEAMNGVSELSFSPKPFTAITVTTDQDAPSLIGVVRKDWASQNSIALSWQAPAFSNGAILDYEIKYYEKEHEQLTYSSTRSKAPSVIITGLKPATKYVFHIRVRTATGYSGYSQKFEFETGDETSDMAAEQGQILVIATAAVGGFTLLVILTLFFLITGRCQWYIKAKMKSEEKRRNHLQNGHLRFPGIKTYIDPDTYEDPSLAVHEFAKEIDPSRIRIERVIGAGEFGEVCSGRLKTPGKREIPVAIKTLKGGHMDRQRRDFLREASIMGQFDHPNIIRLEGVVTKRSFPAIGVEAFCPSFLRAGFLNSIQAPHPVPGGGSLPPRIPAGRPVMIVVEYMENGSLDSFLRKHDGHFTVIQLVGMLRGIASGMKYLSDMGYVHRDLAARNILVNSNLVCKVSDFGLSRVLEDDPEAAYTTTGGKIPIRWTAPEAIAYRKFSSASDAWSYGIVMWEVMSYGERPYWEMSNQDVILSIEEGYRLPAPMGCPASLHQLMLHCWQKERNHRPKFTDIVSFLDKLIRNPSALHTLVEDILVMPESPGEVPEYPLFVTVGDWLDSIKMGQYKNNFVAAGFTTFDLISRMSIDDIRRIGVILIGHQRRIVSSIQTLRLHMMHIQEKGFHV
Experimental: as §1

[34] = target: various enzymes (Homo sapiens, UniProt Q9UIK4); conditions: compound 1 uM
Experimental: as §1

[35] = target: various enzymes (Homo sapiens, UniProt Q9UQB9); conditions: compound 1 uM
Experimental: as §1

[36] = target: various enzymes (Homo sapiens, UniProt Q9Y4K4); conditions: compound 1 uM
Experimental: as §1

| SMILES | Ambit profiling: AURKA [1] | Ambit profiling: LATS1 [2] | Ambit profiling: ABL1(H396P)-nonphosphorylated [3] | Ambit profiling: ABL1(H396P)-phosphorylated [3] | Ambit profiling: PDGFRA [8] | Ambit profiling: PKAC-alpha [9] | Ambit profiling: ERK1 [10] | Ambit profiling: AKT2 [11] | Ambit profiling: ABL2 [12] | Ambit profiling: CSNK1A1 [13] | Ambit profiling: GSK3A [15] | Ambit profiling: BLK [16] | Ambit profiling: JAK3(JH1domain-catalytic) [17] | Ambit profiling: p38-gamma [18] | Ambit profiling: MLK1 [19] | Ambit profiling: MLK2 [20] | Ambit profiling: p38-alpha [21] | Ambit profiling: MRCKA [23] | Ambit profiling: ULK3 [24] | Ambit profiling: MAP3K15 [25] | also measured |
| --- | --- | --- | --- | --- | --- | --- | --- | --- | --- | --- | --- | --- | --- | --- | --- | --- | --- | --- | --- | --- | --- |
| CC(C)N1Cc2nn(C)cc2-c2cnc3[nH]cc(c3c2)-c2cn(nc2C(F)(F)F)CCCC1=O [Compound 45, (Z)-5-isopropyl-31-methyl-13-(trifluoromethyl)-11H,21H,31H-5-aza-2(3,5)-pyrrolo[2,3-b]pyridina-1(4,1),3(4,3)-dipyrazolacyclononaphan-6-one] | 0.6 | 100 | 1.9 | 24 | 11 | 51 | 100 | 100 | 42 | 78 | 17 | 3.7 | 0 | 74 | 46 | 36 | 86 | 100 | 30 | 84 | Ambit profiling: ABL1(T315I)-nonphosphorylated ([4]; compound 1 uM): 9.4; Ambit profiling: ABL1(T315I)-phosphorylated ([4]; compound 1 uM): 11; Ambit profiling: EGFR(G719C) ([5]; compound 1 uM): 59; Ambit profiling: KIT(A829P) ([6]; compound 1 uM): 14; Ambit profiling: KIT(D816H) ([7]; compound 1 uM): 35; Ambit profiling: CSNK1D [14]: 28; Ambit profiling: LRRK2(G2019S) ([22]; compound 1 uM): 53; Ambit profiling: MYLK4 [26]: 100; Ambit profiling: HIPK1 [27]: 6.5; Ambit profiling: HASPIN [28]: 2.3; Ambit profiling: ADCK4 [29]: 3.9; Ambit profiling: CDK11 [30]: 100; Ambit profiling: NEK6 [31]: 98; Ambit profiling: CSNK1G1 [32]: 100; Ambit profiling: EPHA6 [33]: 18; Ambit profiling: DAPK2 [34]: 100; Ambit profiling: AURKC [35]: 20; Ambit profiling: MAP4K5 [36]: 1.2 |
| COc1c2c(nn1C)CN(C(C)C)C(=O)CCCn1cc(c(C(F)(F)F)n1)-c1c[nH]c3ncc-2cc13 [Compound 50, (Z)-5-isopropyl-35-methoxy-31-methyl-13-(trifluoromethyl)-11H,21H,31H-5-aza-2(3,5)-pyrrolo[2,3-b]pyridina-1(4,1),3(4,3)-dipyrazolacyclononaphan-6-one] | 15 | 72 | 0.2 | 3.9 | 5.6 | 72 | 95 | 86 | 22 | 74 | 93 | 1.6 | 0 | 75 | 28 | 60 | 81 | 99 | 73 | 76 | Ambit profiling: ABLT(T315I)-nonphosphorylated [4]: 8.8; Ambit profiling: ABLT(T315I)-phosphorylated [4]: 4.9; Ambit profiling: EGFR(G719C) [5]: 51; Ambit profiling: KIT(A829P) [6]: 19; Ambit profiling: KIT(D816H) [7]: 4.5; Ambit profiling: CSNK10 [14]: 11; Ambit profiling: LRRK2(G2019S) [22]: 27; Ambit profiling: MYLK4 [26]: 77; Ambit profiling: HIPK1 [27]: 13; Ambit profiling: HASPIN [28]: 42; Ambit profiling: ADCK4 [29]: 7.7; Ambit profiling: CDK11 [30]: 49; Ambit profiling: NEK6 [31]: 100; Ambit profiling: CSNK1G1 [32]: 81; Ambit profiling: EPHA6 [33]: 14; Ambit profiling: DAPK2 [34]: 67; Ambit profiling: AURKC [35]: 39; Ambit profiling: MAP4K5 [36]: 4.1 |
